The values below come from US6413909B1, “Herbicide composition for control of rye grass and vetch in preplant burndown” (priority 2001, dated 2002).

The structures appear in SMILES notation.

In one series the test system is humans and other mammals. Particulars: result in words; cited from earlier work.
Series [1] deals with broadleaf weeds and grasses typically found in preplant corn fields. The series is described as follows: Field test of preplant burndown effectiveness (Example 1). Particulars: average of ratings 6 and 8 weeks after treatment. The class given is in vivo. On the procedure: The composition of the present invention was tested for percent burndown effectiveness, compared to pretreatment, in fields containing broadleaf weeds and grasses typically found in preplant corn fields, including Texas panicum, fall panicum, signalgrass, goosegrass, barnyardgrass, yellow & green foxtail, pigweed, wild mustard, ryegrass, vetch, volunteer wheat, Florida pusley, smartweed, and cutleaf evening primrose.
The composition of the present invention consisted of about 57% ametryn, 25% atrazine, and 18% paraquat, by weight, and was applied at a rate of about 2 lbs. per acre. On separate fields, for comparison, ametryn alone, paraquat alone, atrazine alone, and ametryn plus gramoxone were applied. The composition of the present invention was formulated by suspending 2 lbs. of the composition of the present invention per 20 gallons of water. Herbicides were rated for burndown effectiveness 6 and 8 weeks after treatment. The two resulting values were averaged.

A further series relates to vetch. Particulars: herbicide alone; cited from earlier work.

For `C[n+]1ccc(-c2cc[n+](C)cc2)cc1` [paraquat, 1,1-dimethyl-4,4-bipyridinium], in the series with humans and other mammals, the toxicity to humans entry was “high toxicity to humans and other mammals”. Also, the figures for the “Percent Burndown” value in series [1] (paraquat 0.35 lb active ingredient/acre) and in series [1] (paraquat 0.70 lb active ingredient/acre) were 30% and 50%, respectively.

`CCNc1nc(NC(C)C)nc(SC)n1` [ametryn, 2-(ethylamino)-4-isopropylamino-6-methylthio-s-triazine]: in the series with humans and other mammals, the toxicity to humans result is reported as “minimal human toxicity”. In addition, the effective against vetch in the series on vetch was 100%. The “Percent Burndown” value in series [1] (ametryn 1.14 lb active ingredient/acre, compared to pretreatment) is given as 30%.
